Reference: paper PMC12136037, “Type II kinase inhibitors that target Parkinson’s disease–associated LRRK2” (Science Advances, 2025)
“And” between values parts separate entries of the source, which are not always exact repeats. Equal values may be shown once. Read-outs that look alike come from different tables or passages of the source.

What was measured:
JNK3 = target: T1, JNK3 (Homo sapiens, UniProt P53779); test: nanoBRET off-target validation; assay type: cell-based; details: JNK3, two replicates
T1 construct: host or cells: HEK293T (ATCC CRL-3216)
Experimental: (§1) The assay was performed as described previously ([61]). In brief, full-length kinases as listed in table S6 were obtained as plasmids cloned in frame with terminal NanoLuc-fusion (gift from Promega; table S6). […] Serially diluted inhibitor and corresponding tracer as listed in table S6 at the Tracer KD concentration taken from TracerDB (tracerdb.org) ([62]) were pipetted into white 384-well plates (Greiner, 781207) using an ECHO acoustic dispenser (Labcyte). The corresponding protein-transfected cells were added and reseeded at a density of 2 × 10^5 cells/ml after trypsinization and resuspending in Opti-MEM without phenol red (Life Technologies). The system was allowed to equilibrate for 3 hours at 37°C/5% CO2 before bioluminescence resonance energy transfer (BRET) measurements. To measure BRET, NanoBRET NanoGlo Substrate + extracellular NanoLuc Inhibitor (Promega, N2540) was added as per the manufacturer’s protocol, and filtered luminescence was measured on a PHERAstar plate reader (BMG Labtech) equipped with a luminescence filter pair [450-nm BP filter (donor) and 610-nm LP filter (acceptor)]. […] (For step-by-step protocol, see www.eubopen.org/sites/www.eubopen.org/files/attachments/2021/NanoBRET-IC50_v1_0.pdf.)

MAPK14 = target: T2, MAPK14 (Homo sapiens, UniProt Q16539); test: nanoBRET off-target validation; assay type: cell-based
T2 construct: host or cells: HEK293T (ATCC CRL-3216)
Experimental: as §1

T2 sequence (Q16539 whole entry): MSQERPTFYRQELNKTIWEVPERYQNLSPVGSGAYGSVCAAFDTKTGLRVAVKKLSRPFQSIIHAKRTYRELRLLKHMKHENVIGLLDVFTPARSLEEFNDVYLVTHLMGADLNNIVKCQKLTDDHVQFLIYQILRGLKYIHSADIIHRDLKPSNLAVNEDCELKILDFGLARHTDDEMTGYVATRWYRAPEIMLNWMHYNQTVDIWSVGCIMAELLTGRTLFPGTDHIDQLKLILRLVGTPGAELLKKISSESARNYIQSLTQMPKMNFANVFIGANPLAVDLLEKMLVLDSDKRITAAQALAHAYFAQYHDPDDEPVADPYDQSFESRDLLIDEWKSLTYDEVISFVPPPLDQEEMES
T1 sequence (P53779 whole entry): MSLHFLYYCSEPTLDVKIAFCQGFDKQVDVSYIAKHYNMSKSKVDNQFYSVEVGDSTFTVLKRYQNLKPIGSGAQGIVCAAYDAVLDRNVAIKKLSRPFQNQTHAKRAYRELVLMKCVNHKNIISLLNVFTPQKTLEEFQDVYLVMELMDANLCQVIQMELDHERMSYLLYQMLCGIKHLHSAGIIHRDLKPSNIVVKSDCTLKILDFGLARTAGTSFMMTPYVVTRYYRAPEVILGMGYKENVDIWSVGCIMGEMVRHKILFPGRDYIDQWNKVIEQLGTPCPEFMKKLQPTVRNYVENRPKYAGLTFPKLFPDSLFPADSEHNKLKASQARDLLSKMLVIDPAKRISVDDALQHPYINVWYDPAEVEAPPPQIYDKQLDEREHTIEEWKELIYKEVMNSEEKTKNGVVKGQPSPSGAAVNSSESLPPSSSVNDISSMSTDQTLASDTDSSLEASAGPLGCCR

CCSc1nc(NC)c2c(-c3cccc(NC(=O)Nc4cc(C(C)(C)C)nn4-c4ccc(C)cc4)c3)c[nH]c2n1 [Compound 32]
remaining nanoBRET tracer signal at 0.008 µM (JNK3; inhibitor 8 nM, read-out: nanoBRET response normalized to 0% (no tracer) and 100% (no inhibitor) control): 90% | nanoBRET response normalized to 0% (no tracer) and 100% (no inhibitor) control (JNK3; inhibitor 16 nM, listed as RN341, 0.016 µM): 91.5832% | remaining nanoBRET tracer signal at 0.016 µM (JNK3; inhibitor 16 nM, read-out: nanoBRET response normalized to 0% (no tracer) and 100% (no inhibitor) control): 91.5% | nanoBRET response normalized to 0% (no tracer) and 100% (no inhibitor) control (JNK3; inhibitor 50 nM, listed as RN341, 0.05 µM): 98.9095% | remaining nanoBRET tracer signal at 0.05 µM (JNK3; inhibitor 50 nM, read-out: nanoBRET response normalized to 0% (no tracer) and 100% (no inhibitor) control): 96.2% | nanoBRET response normalized to 0% (no tracer) and 100% (no inhibitor) control (JNK3; inhibitor 250 nM, listed as RN341, […]): 99.8628% | remaining nanoBRET tracer signal at […] (JNK3; inhibitor 250 nM, read-out: nanoBRET response normalized to 0% (no tracer) and 100% (no inhibitor) control): 96.3% | nanoBRET response normalized to 0% (no tracer) and 100% (no inhibitor) control (JNK3; inhibitor 500 nM, listed as RN341, 0.5 µM): 92.6932% | remaining nanoBRET tracer signal at 0.5 µM (JNK3; inhibitor 500 nM, read-out: nanoBRET response normalized to 0% (no tracer) and 100% (no inhibitor) control): 93.9% | nanoBRET response normalized to 0% (no tracer) and 100% (no inhibitor) control (JNK3; inhibitor 2500 nM, listed as RN341, […]): 84.3032% | remaining nanoBRET tracer signal at […] (JNK3; inhibitor 2500 nM, read-out: nanoBRET response normalized to 0% (no tracer) and 100% (no inhibitor) control): 90.4% | nanoBRET response normalized to 0% (no tracer) and 100% (no inhibitor) control (JNK3; inhibitor 5000 nM, listed as RN341, 5 µM): 67.4443% | remaining nanoBRET tracer signal at 5 µM (JNK3; inhibitor 5000 nM, read-out: nanoBRET response normalized to 0% (no tracer) and 100% (no inhibitor) control): 74.7% | nanoBRET response normalized to 0% (no tracer) and 100% (no inhibitor) control (JNK3; inhibitor 25000 nM, listed as RN341, 25 µM): 34.5338% | remaining nanoBRET tracer signal at 25 µM (JNK3; inhibitor 25000 nM, read-out: nanoBRET response normalized to 0% (no tracer) and 100% (no inhibitor) control): 48.6% | nanoBRET response normalized to 0% (no tracer) and 100% (no inhibitor) control (MAPK14; MAPK14, inhibitor 8 nM, two replicates, listed as RN341, 0.008 µM): 98.3554% | remaining activity at 0.008 µM (MAPK14; MAPK14, inhibitor 8 nM, two replicates, read-out: nanoBRET response normalized to 0% (no tracer) and 100% (no inhibitor) control): 100% | nanoBRET response normalized to 0% (no tracer) and 100% (no inhibitor) control (MAPK14; MAPK14, inhibitor 16 nM, two replicates, listed as RN341, 0.016 µM): 103.532% | remaining activity at 0.016 µM (MAPK14; MAPK14, inhibitor 16 nM, two replicates, read-out: nanoBRET response normalized to 0% (no tracer) and 100% (no inhibitor) control): 96.2% | nanoBRET response normalized to 0% (no tracer) and 100% (no inhibitor) control (MAPK14; MAPK14, inhibitor 50 nM, two replicates, listed as RN341, 0.05 µM): 95.4254% | remaining activity at 0.05 µM (MAPK14; MAPK14, inhibitor 50 nM, two replicates, read-out: nanoBRET response normalized to 0% (no tracer) and 100% (no inhibitor) control): 90.1% | nanoBRET response normalized to 0% (no tracer) and 100% (no inhibitor) control (MAPK14; MAPK14, inhibitor 250 nM, two replicates, listed as RN341, […]): 83.4876% | remaining activity at […] (MAPK14; MAPK14, inhibitor 250 nM, two replicates, read-out: nanoBRET response normalized to 0% (no tracer) and 100% (no inhibitor) control): 73.2% | nanoBRET response normalized to 0% (no tracer) and 100% (no inhibitor) control (MAPK14; MAPK14, inhibitor 500 nM, two replicates, listed as RN341, 0.5 µM): 52.7705% | remaining activity at 0.5 µM (MAPK14; MAPK14, inhibitor 500 nM, two replicates, read-out: nanoBRET response normalized to 0% (no tracer) and 100% (no inhibitor) control): 57.4% | nanoBRET response normalized to 0% (no tracer) and 100% (no inhibitor) control (MAPK14; MAPK14, inhibitor 2500 nM, two replicates, listed as RN341, […]): 49.0355% | remaining activity at […] (MAPK14; MAPK14, inhibitor 2500 nM, two replicates, read-out: nanoBRET response normalized to 0% (no tracer) and 100% (no inhibitor) control): 48.5% | nanoBRET response normalized to 0% (no tracer) and 100% (no inhibitor) control (MAPK14; MAPK14, inhibitor 5000 nM, two replicates, listed as RN341, 5 µM): 40.5445% | remaining activity at 5 µM (MAPK14; MAPK14, inhibitor 5000 nM, two replicates, read-out: nanoBRET response normalized to 0% (no tracer) and 100% (no inhibitor) control): 48.2% | nanoBRET response normalized to 0% (no tracer) and 100% (no inhibitor) control (MAPK14; MAPK14, inhibitor 25000 nM, two replicates, listed as RN341, 25 µM): 17.1717% | remaining activity at 25 µM (MAPK14; MAPK14, inhibitor 25000 nM, two replicates, read-out: nanoBRET response normalized to 0% (no tracer) and 100% (no inhibitor) control): 25.4% | EC50 (MAPK14; in cellulo nanoBRET, 293T cells): < 5000 nM and 1700 nM
